The record followed here is publication PMC10508631, “Development of an antibody fused with an antimicrobial peptide targeting Pseudomonas aeruginosa: A new approach to prevent and treat bacterial infections” (PLOS Pathogens, 2023).

≈ marks a conversion by molar mass, not a printed value. Where two headings read alike, the source gives them in different places. Where a SMILES comes first, the peptide text is derived from it.

Data set [1] has as its system P. aeruginosa ATCC 39324. It counts as cell-based, Pseudomonas aeruginosa. Here is the method:
(§1) All plates were placed at 37°C overnight.

Data set [2] concerns 293T human cell line. Nature of the data set: Mammalian cell cytotoxicity (CellTiter Glo). It counts as cell-based. Here is the method: On day one, cells from an established 293T human cell line were seeded onto 96-well flat-bottom white plates (10,000 293T cells/well). On day two, dilution plates were prepared by diluting compound in cell growth medium to two times the final starting concentration and then carrying out serial two-fold dilutions across the plate. Medium from the cell growth assay plates was then aspirated, and 50 μl from the compound dilution plates were transferred to the assay plates. Fifty microliters of fresh media were then added to all the wells. The plates were incubated at 37°C, 5% CO2 for three days. […]. Media from the assay plates was aspirated, and 100 μl of CellTiter Glo/growth media mix was added to all wells. After five minutes, luminescence was read, and% inhibition vs. compound concentration was plotted.

Data set [3] relates to P. aeruginosa ATCC 27853. In kind it is cell-based, Pseudomonas aeruginosa. Here is the method:
as §1

The test system of data set [4] is S. aureus 29213. Here is the method: (§2) MICs and a killing assay were performed in this study. MICs were determined according to CLSI guidelines, using 2-fold serial compound dilutions in 96-well microtiter plates. Briefly, compounds were diluted in water across a mother plate and then 2 μl were stamped to assay plates—one plate for each strain to be tested. Bacterial strains were sub-cultured overnight on agar plates at 37°C. […] These concentrated cultures were diluted 1:200 in growth media to approximately 5 x 10^5 cells/ml. All assay plates received 100 μL diluted culture per well. All plates were placed at 37°C overnight. […] Wells at and above the MIC should appear devoid of growth when visualized.

In data set [5] the test system is E. coli ATCC 25922. The following applies: CLSI microdilution, 2-fold dilutions, ~5 x 10^5 cells/ml, 37°C, 18 hours; MIC = at least 80% growth inhibition. Here is the method:
as §2

Data set [6] concerns P. aeruginosa ATCC 27853. Nature of the data set: Synergy with antibiotics (MIC). In kind it is cell-based, Pseudomonas aeruginosa. The following applies: for MIC of the antibiotic alone: P. aeruginosa ATCC 27853; for MIC of the antibiotic in the presence of VSX-1: increasing amounts of VSX-1 (from 0.015 to 4 μg/mL), Fig 4 legend says P297. The protocol:
as §1

[7] abbreviates: CLSI microdilution, 2-fold dilutions, ~5 x 10^5 cells/ml, 37°C, 18 hours, MIC = at least 80% growth inhibition.
Setting [8] is: 293T cells, 10,000 cells/well, three days, 37°C, CellTiter Glo luminescence.
Where [9] appears, read: CLSI microdilution, 2-fold dilutions, ~5 x 10^5 cells/ml, 37°C, 18 hours, MIC = lowest concentration inhibiting growth by at least 80%.

On to `CC[C@H](C)[C@H](NC(=O)CNC(=O)CNC(=O)CNC(=O)CN)C(=O)NCC(=O)N[C@@H](CCCCN)C(=O)N[C@@H](Cc1ccccc1)C(=O)N[C@@H](CC(C)C)C(=O)N[C@@H](CCCCN)C(=O)N[C@@H](CCCCN)C(=O)N[C@@H](C)C(=O)N[C@@H](CCCCN)C(=O)N[C@@H](CCCCN)C(=O)N[C@@H](Cc1ccccc1)C(=O)NCC(=O)N[C@@H](CCCCN)C(=O)N[C@@H](C)C(=O)N[C@@H](Cc1ccccc1)C(=O)N[C@H](C(=O)N[C@@H](CCCCN)C(=O)N[C@H](C(=O)N[C@@H](CC(C)C)C(=O)N[C@@H](CCCCN)C(=O)N[C@@H](CCCCN)C(=O)O)[C@@H](C)CC)C(C)C` [P261] (H-GGGGIGKFLKKAKKFGKAFVKILKK-OH), for which the “MIC P. aeruginosa ATCC 39324” value in data set [1] (setting [7]) was 8 µg/mL (≈ 3.02 µM). The “Cytotox CC50” value in data set [2] (setting [8]) came out at 250 µg/mL.
Take `CC[C@H](C)[C@H](NC(=O)[C@@H](NC(=O)[C@@H]1CCCN1C(=O)[C@H](CO)NC(=O)[C@H](CC(C)C)NC(=O)[C@H](CCCCN)NC(=O)[C@H](CCCCN)NC(=O)[C@H](Cc1ccccc1)NC(=O)[C@H](CC(C)C)NC(=O)[C@H](CCCCN)NC(=O)[C@H](CCCCN)NC(=O)[C@H](Cc1ccccc1)NC(=O)[C@H](CCCCN)NC(=O)[C@H](CCCCN)NC(=O)[C@H](CCCNC(=N)N)NC(=O)[C@H](Cc1ccccc1)NC(=O)[C@H](CCCNC(=N)N)NC(=O)[C@H](CCCCN)NC(=O)[C@H](Cc1ccccc1)NC(=O)[C@H](CCCNC(=N)N)NC(=O)CNC(=O)CNC(=O)CNC(=O)CN)C(C)C)C(=O)N1CCC[C@H]1C(=O)N[C@@H](CC(C)C)C(=O)N[C@@H](CC(C)C)C(=O)N[C@@H](Cc1c[nH]cn1)C(=O)N[C@@H](CC(C)C)C(=O)NCC(=O)O` [P267] (H-GGGGRFKRFRKKFKKLFKKLSPVIPLLHLG-OH): in data set [3] (ATCC 27853, 18 h), the “MIC P. aeruginosa ATCC 27853” value is 4 µg/mL (≈ 1.16 µM). Further, the “MIC P. aeruginosa ATCC 39324” value in data set [1] (ATCC 39324, 18 h) was found to be 4 µg/mL (≈ 1.16 µM). In addition, the “MIC S. aureus 29213” value in data set [4] (29213, 18 h) came to 16 µg/mL (≈ 4.63 µM).
Take `CC[C@H](C)[C@H](NC(=O)[C@H](CCCCN)NC(=O)[C@H](CCCCN)NC(=O)[C@H](CC(C)C)NC(=O)[C@H](CCCCN)NC(=O)[C@H](CCC(=O)O)NC(=O)[C@H](CCCCN)NC(=O)[C@@H](NC(=O)[C@H](CCCCN)NC(=O)[C@H](CC(N)=O)NC(=O)[C@H](CCCNC(=N)N)NC(=O)[C@H](Cc1ccccc1)NC(=O)[C@H](CCCCN)NC(=O)[C@H](CCCNC(=N)N)NC(=O)[C@H](CC(C)C)NC(=O)[C@H](CCCNC(=N)N)NC(=O)[C@H](CCCCN)NC(=O)[C@H](CCCNC(=N)N)NC(=O)[C@H](CC(C)C)NC(=O)CNC(=O)CNC(=O)CNC(=O)CN)[C@@H](C)CC)C(=O)NCC(=O)N[C@@H](CCC(N)=O)C(=O)N[C@@H](CCCCN)C(=O)N[C@H](C(=O)N[C@@H](CCC(N)=O)C(=O)NCC(=O)N[C@@H](CC(C)C)C(=O)N[C@@H](CC(C)C)C(=O)N1CCC[C@H]1C(=O)N[C@@H](CCCCN)C(=O)N[C@@H](CC(C)C)C(=O)N[C@@H](C)C(=O)O)[C@@H](C)CC` [P271] (H-GGGGLRKRLRKFRNKIKEKLKKIGQKIQGLLPKLA-OH): the “MIC P. aeruginosa ATCC 39324” value in data set [1] (setting [7]) is 8 µg/mL (≈ 2.01 µM). Further, the “Cytotox CC50” value in data set [2] (setting [8]) was found to be 250 µg/mL.
For the molecule `CSCC[C@H](NC(=O)[C@H](CO)NC(=O)[C@H](C)NC(=O)[C@H](C)NC(=O)[C@H](C)NC(=O)[C@H](C)NC(=O)[C@H](C)NC(=O)[C@H](C)NC(=O)[C@H](C)NC(=O)[C@H](CC(N)=O)NC(=O)[C@H](C)NC(=O)[C@H](C)NC(=O)[C@@H](NC(=O)[C@H](CC(C)C)NC(=O)[C@H](C)NC(=O)[C@H](C)NC(=O)[C@H](C)NC(=O)[C@H](C)NC(=O)[C@H](C)NC(=O)[C@H](C)NC(=O)[C@H](CC(=O)O)NC(=O)[C@H](CO)NC(=O)[C@H](C)NC(=O)[C@@H](NC(=O)[C@H](Cc1c[nH]cn1)NC(=O)CNC(=O)CNC(=O)CN)[C@@H](C)O)[C@@H](C)O)C(=O)N[C@@H](C)C(=O)O` [P292] (H-GGGHTASDAAAAAALTAANAAAAAAASMA-OH), in data set [3] (setting [9]), the “MIC P. aeruginosa ATCC 27853” value was above 128 µg/mL. The “MIC P. aeruginosa ATCC 39324” value in data set [1] (setting [7]) was above 128 µg/mL. The “Cytotox CC50” value in data set [2] (setting [8]) turned out to be 250 µg/mL. Further, the “MIC E. coli ATCC 25922” value in data set [5] is above 128 µg/mL. For the same molecule, the “MIC S. aureus 29213” value in data set [4] (setting [7]) is above 128 µg/mL.
`CC[C@H](C)[C@H](NC(=O)[C@H](CCCCN)NC(=O)[C@H](CCCNC(=N)N)NC(=O)CNC(=O)[C@H](CC(C)C)NC(=O)[C@H](CCCNC(=N)N)NC(=O)[C@H](CCCNC(=N)N)NC(=O)[C@H](CC(C)C)NC(=O)CNC(=O)[C@H](CCCNC(=N)N)NC(=O)CNC(=O)CNC(=O)CN)C(=O)N[C@@H](C)C(=O)N[C@@H](Cc1c[nH]cn1)C(=O)NCC(=O)N[C@H](C(=O)N[C@@H](CCCCN)C(=O)N[C@@H](CCCCN)C(=O)N[C@@H](Cc1ccc(O)cc1)C(=O)NCC(=O)N1CCC[C@H]1C(=O)N[C@H](C(=O)N[C@H](C(=O)N[C@@H](CC(C)C)C(=O)N[C@@H](CCCNC(=N)N)C(=O)N[C@H](C(=O)N[C@H](C(=O)N[C@@H](CCCCN)C(=O)N[C@@H](CCCCN)C(=O)N[C@@H](Cc1ccc(O)cc1)C(=O)NCC(=O)O)[C@@H](C)CC)[C@@H](C)CC)C(C)C)[C@@H](C)O)C(C)C` [P294] (H-GGGRGLRRLGRKIAHGVKKYGPTVLRIIKKYG-OH): in data set [1] (ATCC 39324, 18 h), the “MIC P. aeruginosa ATCC 39324” value was 2 µg/mL (≈ 0.57 µM).
Turning to `CC[C@H](C)[C@H](NC(=O)[C@@H](NC(=O)[C@@H]1CCCN1C(=O)[C@H](CO)NC(=O)[C@H](CC(C)C)NC(=O)[C@H](CCCCN)NC(=O)[C@H](CCCCN)NC(=O)[C@H](Cc1ccccc1)NC(=O)[C@H](CC(C)C)NC(=O)[C@H](CCCCN)NC(=O)[C@H](CCCCN)NC(=O)[C@H](Cc1ccccc1)NC(=O)[C@H](CCCCN)NC(=O)[C@H](CCCCN)NC(=O)[C@H](CCCNC(=N)N)NC(=O)[C@H](Cc1ccccc1)NC(=O)[C@H](CCCNC(=N)N)NC(=O)[C@H](CCCCN)NC(=O)[C@H](Cc1ccccc1)NC(=O)[C@H](CCCNC(=N)N)NC(=O)CNC(=O)CNC(=O)CNC(=O)CN)C(C)C)C(=O)N1CCC[C@H]1C(=O)N[C@@H](CC(C)C)C(=O)N[C@@H](CC(C)C)C(=O)N[C@@H](Cc1c[nH]cn1)C(=O)N[C@@H](CC(C)C)C(=O)NCC(=O)O` [P295] (H-GGGGRFKRFRKKFKKLFKKLSPVIPLLHLG-OH), the “MIC P. aeruginosa ATCC 27853” value in data set [3] (ATCC 27853, 18 h) was found to be 4 µg/mL (≈ 1.16 µM). Further, the “MIC P. aeruginosa ATCC 39324” value in data set [1] (ATCC 39324, 18 h) was 4 µg/mL (≈ 1.16 µM). Further, the “Cytotox CC50” value in data set [2] was 95 µg/mL.
For `CC[C@H](C)[C@H](NC(=O)[C@@H](NC(=O)[C@H](CCCNC(=N)N)NC(=O)[C@@H]1CCCN1C(=O)[C@H](CCCCN)NC(=O)[C@H](CCCCN)NC(=O)[C@H](Cc1ccccc1)NC(=O)[C@H](Cc1ccccc1)NC(=O)[C@H](CCCCN)NC(=O)[C@H](CCCCN)NC(=O)[C@H](C)NC(=O)[C@H](CCCNC(=N)N)NC(=O)[C@H](CCCCN)NC(=O)[C@H](CCCCN)NC(=O)[C@@H](NC(=O)[C@H](CO)NC(=O)[C@H](CC(N)=O)NC(=O)[C@H](CCCCN)NC(=O)[C@H](CC(C)C)NC(=O)[C@H](CCCCN)NC(=O)[C@H](CCCCN)NC(=O)[C@H](Cc1ccccc1)NC(=O)[C@H](Cc1ccccc1)NC(=O)[C@H](CCCCN)NC(=O)[C@H](CCCCN)NC(=O)[C@H](Cc1ccccc1)NC(=O)[C@H](CCCNC(=N)N)NC(=O)[C@H](CCCCN)NC(=O)CNC(=O)CNC(=O)CN)C(C)C)C(C)C)C(=O)NCC(=O)N[C@H](C(=O)N[C@@H](CO)C(=O)N[C@H](C(=O)N1CCC[C@H]1C(=O)N[C@@H](Cc1ccccc1)C(=O)O)[C@@H](C)CC)C(C)C` [P296] (H-GGGKRFKKFFKKLKNSVKKRAKKFFKKPRVIGVSIPF-OH), in data set [3] (setting [9]), the “MIC P. aeruginosa ATCC 27853” value amounted to 4 µg/mL (≈ 0.925 µM). The “MIC P. aeruginosa ATCC 39324” value in data set [1] (setting [7]) stood at 2 µg/mL (≈ 0.462 µM). For the same molecule, in data set [2] (setting [8]), the “Cytotox CC50” value turned out to be 400 µg/mL.
As to `C[C@@H](O)[C@H]1C(=O)N2C(C(=O)O)=C(S[C@@H]3CN[C@H](C(=O)N(C)C)C3)[C@H](C)[C@H]12` [meropenem], in data set [6], the “MIC of the antibiotic alone” value came to 0.5 µg/mL and the “MIC of the antibiotic in the presence of VSX-1” value was below 0.1 µg/mL.
Regarding `NC[C@H]1O[C@H](O[C@H]2[C@H](O)[C@@H](O[C@H]3O[C@H](CO)[C@@H](O)[C@H](N)[C@H]3O)[C@H](N)C[C@@H]2N)[C@H](N)C[C@@H]1O` [tobramycin], the “synergy: MIC of the antibiotic in the presence of P297” value in data set [6] (Fig 4 legend) is on record as “did not exhibit an enhanced MIC”.
colistin: in data set [6], the “MIC of the antibiotic alone” value is ~ 1 μg/ml and the “MIC of the antibiotic in the presence of VSX-1” value is below 0.1 µg/mL.
